Test results published in ChEMBL document CHEMBL4373661, “Set-up and screening of a fragment library targeting the 14-3-3 protein interface” (Medchemcomm, 2019).
Calls of active or inactive are those of the source. The calls are words filed in the database; no cut-off is given here.

Assays:
Homo sapiens [1] = organism: Homo sapiens; experiment: Binding affinity to human His6-tagged 14-3-3 protein sigma C17 deletion mutant expressed in Escherichia coli BL21 (DE3) at 500 uM by WaterLOGSY NMR analysis
Homo sapiens [2] = organism: Homo sapiens; experiment: Binding affinity to 15N2H labelled human 14-3-3 protein sigma C17 deletion mutant at top of helices alphaH and alphaI assessed as chemical shift perturbations in resonances at 2000 uM by 1H-15N TROSY-HSQC 2D NMR analysis
Homo sapiens [3] = organism: Homo sapiens; experiment: Binding affinity to 15N2H labelled human 14-3-3 protein sigma C17 deletion mutant at dimer interface assessed as chemical shift perturbations in resonances at 2000 uM by 1H-15N TROSY-HSQC 2D NMR analysis

SMILES | Activity (Homo sapiens [1]) | Activity (Homo sapiens [2]) | Activity (Homo sapiens [3])
CC12CC3(C)CC(C)(C1)CC(C(=O)O)(C2)C3 | Active | Active | 
NC(=O)c1cc(Cl)cc(Cl)c1O | Active |  | Active
Cc1ccc(B(O)O)cc1Cl | Active | Active | 
